# Source: publication PMC11458958 (iScience, 2024)
# Residues, ends and D or L forms follow the SMILES beside them. *: point of attachment. Cbz = O=C(OCc1ccccc1)*
# How the values were obtained:
# [1] = tested on: mice with post-infarction remodeling; type: in vivo, C57BL/6J mice; conditions: 20 mg/kg daily oral
# [2] = tested on: TAC mice; test: Transverse aortic constriction
# [3] = tested on: cathepsins B and L; conditions: cited from earlier work
# [4] = tested on: cathepsins K, B, L and S; conditions: 25 mg/kg; cited from earlier work
# [5] = tested on: mice subjected to coronary occlusion and reperfusion; test: In vivo acute reperfusion injury: 45 min coronary occlusion, 24 h reperfusion; set-up: species or system C57BL/6J mice; conditions: 25 mg/kg i.p. 10 min before reperfusion
# [6] = tested on: cathepsin L; test: Cathepsin activity in heart homogenates; type: in vivo, C57BL/6J mice; conditions: 25 mg/kg
# [7] = 4 weeks after TAC, 10 mg/kg daily oral from 1 to 4 weeks after TAC (3w)
smiles,measurement,setting,value
CCOC(=O)[C@H](CCc1ccccc1)N[C@@H](C)C(=O)N1CCC[C@H]1C(=O)O [Enalapril],EF,[1]; 4 weeks of reperfusion,52.6 ± 2.2%
same,FS,[1]; 4 weeks of reperfusion,22.7 ± 1.3%
same,IVST,[1]; 4 weeks of reperfusion,0.79 ± 0.03 mm
same,LVEDD,[1]; 4 weeks of reperfusion,4.85 ± 0.19 mm
same,LVESD,[1]; 4 weeks of reperfusion,3.75 ± 0.12 mm
same,LVPWT,[1]; 4 weeks of reperfusion,0.67 ± 0.02 mm
same,reduction of scar size vs. control group,[1]; 28 days,24%
same,mortality rate,[1]; 28 days of reperfusion,20%
same,EF,[2]; [7],49.5 ± 1.6^$∗ %
same,FS,[2]; [7],20.8 ± 0.8^$∗ %
same,HW,[2]; [7],151.8 ± 4.9 mg
same,HW/TL,[2]; [7],8.68 ± 0.26^$∗ mg/mm
same,IVST,[2]; [7],0.97 ± 0.03^$∗ mm
same,LVEDD,[2]; [7],4.48 ± 0.05∗ mm
same,LVESD,[2]; [7],3.55 ± 0.05^$∗ mm
same,LVPWT,[2]; [7],0.78 ± 0.03^$ mm
same,EF reduction with respect to baseline,"[2]; 4 weeks after TAC, 10 mg/kg daily oral starting 1 week after TAC",16%
same,capillary density (CD31 staining),"[2]; starting 1 week after TAC surgery, 10 mg/kg daily oral",preserved capillary density
CC(C)[C@H](NC(=O)OCc1ccccc1)C(=O)N[C@H](C=O)Cc1ccccc1 [MDL-28170] (Cbz-Val-Phe-aldehyde),cathepsin inhibition,[3],inhibit at least cathepsins B and L
COCCOCCOC(=O)N[C@@H](CC(C)C)C(=O)N[C@@H](Cc1ccccc1)C(=O)C(=O)NC1CC1 [SNJ-1945],cathepsin inhibition,[3],inhibit at least cathepsins B and L
CCCN1CCN(c2ccc(C(=O)NC3(C(=O)NCC#N)CCCCC3)cc2)CC1 [balicatib],cathepsin inhibition at this dose,[4],"inhibits cathepsins K, B, L and S"
same,effect on infarct size,[5],failed to attenuate infarct size
same,"cathepsin L activity in heart homogenates, reduced, compared to sham mice",[6],41.2 ± 7.3%
